Results as given in patent publication US5070210A, “Novel ketenimines as intermediates for insecticides” (ICI Americas Inc., priority 1990, dated 1991).

Key:
Assay type in all cases: in vivo
[1] = tested on: Housefly [Musca domestica]; test: Housefly insecticidal test; details: μg per 25 female flies; mortality after 48 hours
Experimental: (§1) The compounds in Tables 1 and 2 above were tested for insecticidal activity using the following testing procedures. LC50 values, based on the results of these tests and calculated according to dosage-mortality curves, are expressed in Table 3.
Housefly [Musca domestica]:
Test compounds were diluted in acetone and aliquots pipetted onto the bottom of aluminum dishes. To ensure even spreading of the chemical on the bottom of the dishes, 1 ml of acetone containing 0.01% peanut oil was also added to each dish. After all solvents had evaporated, the dishes were placed in circular cardboard cages containing 25 female houseflies, 1-2 days old. The cages were covered on the bottom with cellophane and on the top with tulle netting, and each contained a sugar-water saturated cotton plug for maintenance of the flies. Mortality was recorded after 48 hours. Test levels ranged from 100 μg/25 female houseflies downward. The LC-50 value is expressed below in Table 3 under the heading "HF", in terms of μg of the test compound per 25 female flies.

[2] = tested on: Cabbage Looper [Trichoplusia ni (Hubner)]; test: Cabbage looper insecticidal test; details: second-instar larvae, percent in solution; 3-5 days
Experimental: as §1
Cabbage Looper [Trichoplusia ni (Hubner)]:
Test compounds were diluted in a 50-50 acetone-water solution. Cotyledons of hyzini squash (Calabacita abobrinha), approximately 1×1.5 inches, were immersed in the test solutions for 2-3 seconds and placed on a wire screen to dry. The dried leaves were placed in petri dishes containing a moistened piece of filter paper and infested with 5 second-instar cabbage looper larvae. The dishes were placed in a high humidity chamber. Mortality of the larvae was recorded 3-5 days later. Test concentrations ranged from 0.1% downward. The LC-50 value is expressed below in Table 3 under the heading "CL" in terms of percent of the test compound in solution.

[3] = tested on: Tobacco Budworm [Heliothis virescens (Fabricius)] eggs; test: Tobacco budworm egg test; details: 2-day old eggs, percent in solution
Experimental: as §1
Tobacco Budworm [Heliothis virescens (Fabricius)]:
(b). Eggs: Paper towel patches of 2-day old eggs of the tobacco budworm were dipped in acetone solutions of the test compound and placed in petri dishes containing a portion of larval rearing medium. Treated eggs were maintained at 78° F. and mortality was recorded after all control eggs had hatched and the young larvae were feeding on the media. Test concentrations ranged from 0.1% downward. The LC-50 value is expressed below in Table 3 under the heading "TBW-E" in terms of percent of the test compound in the solution.

Row | SMILES | LC50, HF [1] [µg] | LC50, CL [2] [%] | LC50, TBW, E (TBW-E) [3] [%]
1 | CC(C)(C)C(=Nc1cccc(Cl)c1)OCc1cccc(Oc2ccccc2)c1 [Compound 12] | > 100 | 0.008 | > 0.1
2 | CC1CC1C(=Nc1ccc(Cl)cc1)OCc1cccc(Oc2ccccc2)c1 (stereo not shown) [Compound 15] | > 100 | 0.025 | > 0.1
3 | CC(C)C(=Nc1cc(Cl)c(Cl)cc1Cl)OCc1cccc(Oc2ccccc2)c1 [Compound 18] | > 100 | 0.008 | 0.09
4 | CC(C)C(=Nc1c(Cl)cc(Cl)cc1Cl)OCc1cccc(Oc2ccccc2)c1 [Compound 19] | > 100 | < 0.1 | > 0.1
5 | COC(C)C(=Nc1ccc(Cl)cc1)OCc1cccc(Oc2ccccc2)c1 (stereo not shown) [Compound 22] | 15 | 0.004 | 0.08
6 | Clc1cccc(N=C(OCc2cccc(Oc3ccccc3)c2)C2CC2)c1 [Compound 24] | 25 | 0.005 | 0.1
7 | CCC(C)C(=Nc1ccc(Cl)cc1)OCc1cccc(Oc2ccccc2)c1 (stereo not shown) [Compound 26] | > 100 | 0.007 | > 0.1
8 | CC(Cl)C(=Nc1ccc(Cl)c(Cl)c1)OCc1cccc(Oc2ccccc2)c1 (stereo not shown) [Compound 27] | > 100 | 0.04 | > 0.1
9 | CCC(=Nc1cccc(Cl)c1Cl)OCc1cccc(Oc2ccccc2)c1 [Compound 28] | > 100 | 0.009 | > 0.1
10 | CCC(=Nc1ccc(Cl)c(Cl)c1)OCc1cccc(Oc2ccccc2)c1 [Compound 36] | 20 | 0.024 | > 0.1
11 | CCCC(=Nc1ccc(Cl)c(Cl)c1)OCc1cccc(Oc2ccccc2)c1 [Compound 38] | 33 | 0.006 | 0.05
12 | CCC(C)C(=Nc1ccc(Cl)c(Cl)c1)OCc1cccc(Oc2ccccc2)c1 (stereo not shown) [Compound 39] | > 100 | 0.0023 | > 0.1
13 | CC(C)C(=Nc1ccc(Cl)c(Cl)c1)OCc1cccc(Oc2cccc(F)c2)c1 [Compound 40] | 36 | 0.0025 | 0.08
14 | CC(C)(C)C(=Nc1ccc(F)cc1)OCc1cccc(Oc2ccccc2)c1 [Compound 48] | > 100 | 0.03 | > 0.05
15 | CC(C)C(=Nc1cc(F)ccc1F)OCc1cccc(Oc2ccccc2)c1 [Compound 56] | 91 | 0.01 | > 0.05
16 | CC(C)C(=Nc1cc(F)c(F)cc1F)OCc1cccc(Oc2ccccc2)c1 [Compound 58] | 16 | 0.002 | 0.06
17 | CCC(=Nc1ccc(F)cc1F)OCc1cccc(Oc2ccccc2)c1 [Compound 59] | 25 | 0.02 | > 0.1
18 | COc1cc(N=C(OCc2cccc(Oc3ccccc3)c2)C(C)C)cc(C(F)(F)F)c1 [Compound 76] | 20 | 0.002 | 0.05
19 | CC(C)C(=Nc1cc(C(F)(F)F)cc(C(F)(F)F)c1)OCc1cccc(Oc2ccccc2)c1 [Compound 78] | > 100 | 0.0025 | > 0.1

Row | SMILES | LC50, HF [1] [µg] | LC50, CL [2] [%] | LC50, TBW, E (TBW-E) [3] [%]
20 | CC(C)C(=Nc1ccc(Br)cc1F)OCc1cccc(Oc2ccccc2)c1 [Compound 79] | 6 | 0.003 | 0.05
21 | CC(C)C(=Nc1cc(C(F)(F)F)ccc1F)OCc1cccc(Oc2ccccc2)c1 [Compound 84] | 93 | 0.006 | 0.1
22 | FC(F)(F)c1cccc(N=C(OCc2cccc(Oc3ccccc3)c2)C2CC2)c1 [Compound 86] | 65 | 0.013 | > 0.1
23 | Cc1cc(N=C(OCc2cccc(Oc3ccccc3)c2)C(C)C)ccc1F [Compound 87] | 5 | 0.004 | 0.03
24 | Cc1ccc(Cl)c(N=C(OCc2cccc(Oc3ccccc3)c2)C(C)C)c1 [Compound 93] | 64 | 0.005 | > 0.1
25 | Cc1ccc(N=C(OCc2cccc(Oc3ccccc3)c2)C(C)C)c(Cl)c1 [Compound 94] | 44 | 0.0045 | 0.075
26 | COc1cc(N=C(OCc2cccc(Oc3ccccc3)c2)C(C)C)c(OC)cc1Cl [Compound 99] | > 100 | 0.016 | > 0.1
27 | COc1ccc(OC)c(N=C(OCc2cccc(Oc3ccccc3)c2)C(C)C)c1Cl [Compound 100] | 100 | 0.05 | > 0.1
28 | CCSc1ccc(N=C(OCc2cccc(Oc3ccccc3)c2)C(C)C)cc1Cl [Compound 103] | > 100 | 0.015 | > 0.1
29 | CCOC(=O)c1ccc(N=C(OCc2cccc(Oc3ccccc3)c2)C(C)C)cc1Cl [Compound 104] | > 100 | 0.004 | > 0.1
30 | CC(C)(C)C(=Nc1ccc(Cl)c([N+](=O)[O-])c1)OCc1cccc(Oc2ccccc2)c1 [Compound 105] | > 100 | 0.018 | > 0.1
31 | CC(C)(C)C(=Nc1ccc(Br)c(Cl)c1)OCc1cccc(Oc2ccccc2)c1 [Compound 106] | > 100 | 0.014 | > 0.1
32 | Cc1ccc(N=C(OCc2cccc(Oc3ccccc3)c2)C(C)(C)C)cc1Cl [Compound 107] | > 100 | 0.007 | > 0.1
33 | Cc1cc(Cl)ccc1N=C(OCc1cccc(Oc2ccccc2)c1)C(C)(C)C [Compound 109] | > 100 | 0.002 | > 0.1
34 | COc1ccc(N=C(OCc2cccc(Oc3ccc(F)cc3)c2)C(C)C)cc1Cl [Compound 110] | 26 | 0.007 | 0.04
35 | CC(C)C(=Nc1cccc(Oc2ccccn2)c1)OCc1cccc(Oc2ccccc2)c1 [Compound 114] | 92 | < 0.1 | –
36 | FC(F)(F)c1ccc(Oc2ccc(COC(=Nc3ccc(Cl)cc3)C(Cl)Cl)cc2)nc1 [Compound 453] | > 100 | 0.1 | –
37 | CC(C)C(=Nc1ccc(F)c(Cl)c1)OC(F)c1cccc(Oc2ccc(F)cc2)c1 (stereo not shown) [Compound 502] | 80 | – | –
38 | CC(C)C(=Nc1ccc(OC(F)(F)F)cc1)OCc1cccc(Cc2ccccc2)c1 [Compound 542] | > 100 | > 0.01 | –
